Series [1] concerns CD-1 mice (male). The conditions noted are these: oral administration; cited from earlier work.
The subject of series [2] is CD-1 mice (male). Put plainly: Acute toxicity by oral administration to mice. The format is in vivo. The method, then:
The acute toxicity, as tested by oral administration to CD-1 mice (male), of mono-L-aspartyl chlorin e6 tetra-sodium salt is already known to be such that its 50% lethal dose is 164 mg/kg, and thus the compound is of a low toxicity (refer to Japanese Patent Application Publication Kokai Hei 9-71531).

Series [3] relates to MKSA cells (solid ascites carcinoma in the abdominal region). Put plainly: Test Example 1: detection and therapy of tumor tissue by X-ray radiography (solid ascites carcinoma). The format is in vivo, Male Balb/c mice. How it is done: (§1) Male Balb/c mice having a body weight of 16˜20 g (five mice per group) were inoculated, in their abdominal region, with MKSA cells to form a solid ascites carcinoma in the abdominal region of mouse. The mono-L-aspartyl chlorin e6-gold complex sodium salt (the product of Example 2 above) was administered at a dose of 0.01˜0.04 mg in the form of a physiological saline solution of said gold complex sodium salt to the cancer-bearing mice through their tail vein. At the end of one hour to three hours after the administration, the mice were anesthetized with nembutal. An X-ray beam containing the X-ray of the wavelength of 0.153 Å was irradiated from outside of the body to the abdominal region of the mice for an appropriate time.
X-ray image was formed by allowing the X-ray to pass through the abdominal region of mice and to expose and sensitize an X-ray film.
Thus, it was found and confirmed that the gold complex of the chlorin e6 derivative as administered to mice had exerted a cytocidal action to the ascites carcinoma cells upon the irradiation of X-ray to mice.

For series [4], the system named is lesions of arteriosclerosis of artery. Put plainly: Test Example 2: detection and therapy of lesions of arteriosclerosis by X-ray radiography. The format is in vivo, rabbit. The conditions noted are these: 8 mg via ear vein. The method, then:
To a rabbit having a high cholesteremia and a body weight of about 4 kg was administered 8 mg of the mono-L-aspartyl chlorin e6-gold complex sodium salt (the product of Example 2) through the ear vein. One hour after the administration, anesthesia with nembutal was done to the rabbit. Then, the whole body of the rabbit was irradiated for an appropriate time with an X-ray beam containing the X-ray of the wavelength of 0.153 Å which suited to the electron absorption of the K-shell of gold atom. The X-ray which had passed through the rabbit was allowed to sensitize an X-ray film and to produce X-ray image.

The subject of series [5] is PC-10 cells originated from human lung cancer. Put plainly: Test Example 3: X-ray radiography of PC-10 solid cancer on the back of nude mice. It counts as in vivo. The conditions noted are these: nude mice with PC-10 solid cancer on the back; procedure of Test Example 1. How it is done:
as §1
The procedure of Test Example 1 was repeated except that the ascites carcinoma-bearing used in Test Example 1 were replaced by nude mice which had on the back of the body a solid cancer as formed by transplantation of PC-10 cells originated from human lung cancer.

Turning to `C=Cc1c(C)c2cc3nc(c(CC(=O)N[C@@H](CC(=O)[O-])C(=O)[O-])c4[nH]c(cc5nc(cc1[nH]2)C(C)=C5CC)c(C)c4C(=O)[O-])[C@@H](CCC(=O)[O-])[C@@H]3C.[Na+].[Na+].[Na+].[Na+]` [mono-L-aspartyl chlorin e6 tetra-sodium salt], in the series with CD-1 mice (male) [1], the “50% lethal dose (acute toxicity)” value is 164 mg/kg.
Regarding “mono-L-aspartyl chlorin e6-gold complex sodium salt [Example 2]”, the “acute toxicity upon oral administration, compared with mono-L-aspartyl chlorin e6 tetrasodium salt” value with CD-1 mice (male) [2] is on record as “substantially same as that of the mono-L-aspartyl chlorin e6 tetrasodium salt”. The “X-ray image of the solid cancer on X-ray film” value in series [3] (0.01~0.04 mg i.v. (tail vein), X-ray beam containing 0.153 Å irradiated 1-3 hours after administration) was “sharply imaged”; in series [5], “Sharp X-ray image”. Further, in series [3] (one week after the X-ray irradiation, 0.01~0.04 mg i.v.), the “dimensions of the solid cancer compared with those at the time of the X-ray photograph” value is listed as “reduced significantly”. Besides, the “X-ray image of the lesions of arteriosclerosis” value in series [4] (rabbit with high cholesteremia, X-ray beam containing 0.153 Å one hour after administration) is “sharp X-ray image”. In series [4] (one week after the X-ray irradiation), the “dimensions of the lesions of arteriosclerosis compared with those at the time of X-ray irradiation” value is recorded as “clearly diminished”.

The values are drawn from US6413495B1, “X-ray intercepting metal complexes of chlorin derivatives” (Meiji Seika Kaisha, Ltd., priority 1998, dated 2002).
